Measured values from patent US20240409934A1, “FOXO1-TARGETED THERAPY FOR THE TREATMENT OF CANCER” (BOARD OF REGENTS, THE UNIVERSITY OF TEXAS SYSTEM, priority 2021, published 2024).

Key:
[1] = system: LN229; test: Western blot for cleaved caspase 3; type: cell-based
Procedure: (§1) Total protein was obtained from indicated cells by rinsing cells with 1×PBS (phosphate buffered saline) followed by directed lysis in 2× sample buffer (125 mM Tris-HCL at pH 6.8, 2% sodium dodecyl sulfate (SDS), 10% 2-mercaptoethanol, 20% glycerol, 0.05% bromophenol blue, 8 M urea); 2× sample buffer was added to each well and cells scraped with a cell scraper. The lysate was collected from each well, placed into a 1.5 mL microcentrifuge tube and heated for 10 minutes at 95° C. in a dry-bath heat block. Protein lysates were separated by sodium dodecyl sulfate-polyacrylamide gel electrophoresis (SDS-PAGE) at 100V for 1 hour. […] Data was analyzed with NIH Image J. Antibodies were obtained from Cell Signaling Technologies (Danvers, MA): Cleaved Caspase 3 antibody (cat: 94530). […]

[2] = system: BT549; test: Western blot for cleaved caspase 3; type: cell-based
Procedure: as §1

## CCn1cc(C(=O)O)c(=O)c2c(N)c(F)c(NC3CCCCC3)cc21 [AS1842856, 5-Amino-7-(cyclohexylamino)-1-ethyl-6-fluoro-4-oxo-1,4-dihydroquinoline-3-carboxylic acid]
[1]
  caspase 3 cleavage: positive for caspase 3 cleavage
[2]
  caspase 3 cleavage: positive for caspase 3 cleavage
